Numbered stars: 1 amine (or outer) side, 2 acyl side, 3 side chain; on linkers, the order of the positions; unused ones are H or OH. Bridge positions count the residues as written; N and C are the ends. Square brackets hold non-standard residues; d marks the D form. Peptide text beside a SMILES is read from it. X1 = N=C(N)NCCC[C@H](N[*:1])C(=O)c1nc2ccc(C(=O)[*:2])cc2s1
What was measured:
[1] = biological target: T1, recombinant serine protease domain of HGFA (Homo sapiens, UniProt Q04756); experiment: Fluorescent kinetic enzyme inhibition assay, HGFA; type: biochemical
T1 sequence (Q04756 408-646 limits assumed): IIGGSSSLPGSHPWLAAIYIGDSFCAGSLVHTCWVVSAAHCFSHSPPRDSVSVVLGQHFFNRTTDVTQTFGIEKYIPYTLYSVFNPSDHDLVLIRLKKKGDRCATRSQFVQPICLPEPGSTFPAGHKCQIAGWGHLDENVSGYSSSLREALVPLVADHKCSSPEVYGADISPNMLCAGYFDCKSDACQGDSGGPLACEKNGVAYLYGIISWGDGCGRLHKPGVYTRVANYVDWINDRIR

[2] = biological target: T2, matriptase (Homo sapiens, UniProt Q9Y5Y6); experiment: Fluorescent kinetic enzyme inhibition assay, matriptase; type: biochemical
T2 sequence (Q9Y5Y6 615-855 limits assumed): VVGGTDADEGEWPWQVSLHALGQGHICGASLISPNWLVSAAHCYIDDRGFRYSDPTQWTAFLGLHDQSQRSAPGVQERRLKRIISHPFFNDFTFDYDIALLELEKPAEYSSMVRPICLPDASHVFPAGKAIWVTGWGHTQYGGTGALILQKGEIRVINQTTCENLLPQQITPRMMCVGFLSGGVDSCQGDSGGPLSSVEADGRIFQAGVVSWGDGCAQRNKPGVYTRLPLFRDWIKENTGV

[3] = biological target: Factor Xa (Homo sapiens, UniProt P00742); experiment: Chromogenic kinetic enzyme assay, Factor Xa; type: biochemical
[4] = biological target: thrombin (Homo sapiens, UniProt P00734); experiment: Chromogenic kinetic enzyme assay, thrombin; type: biochemical
[5] = In vitro stability in mouse plasma; type: in vitro ADME
[6] = In vitro stability in human plasma; type: in vitro ADME

Factor Xa, sequence (P00742 235-488 limits assumed): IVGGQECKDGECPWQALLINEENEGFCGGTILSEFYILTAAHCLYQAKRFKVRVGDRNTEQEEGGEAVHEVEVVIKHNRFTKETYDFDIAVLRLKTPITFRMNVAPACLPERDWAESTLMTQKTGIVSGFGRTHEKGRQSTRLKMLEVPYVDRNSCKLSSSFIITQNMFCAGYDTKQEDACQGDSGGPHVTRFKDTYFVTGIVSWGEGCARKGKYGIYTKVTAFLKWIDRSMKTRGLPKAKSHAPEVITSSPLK
Factor Xa, sequence (P00742 41-179 partner limits assumed): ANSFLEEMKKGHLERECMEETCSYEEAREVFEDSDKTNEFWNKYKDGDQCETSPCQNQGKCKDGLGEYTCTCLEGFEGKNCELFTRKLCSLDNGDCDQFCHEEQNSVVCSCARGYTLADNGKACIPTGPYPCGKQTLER

CC(=O)N[C@H]1CC(=O)NCCCC[C@@H](C(=O)N[C@@H](CCCNC(=N)N)C(=O)c2nc3ccc(C(=O)N[C@H](C(N)=O)C(C)C)cc3s2)NC(=O)[C@H](CC(C)C)NC1=O [Compound 20, Ac-cyclo(DLK)-R- ketobenzothiazole-V-amide] (Ac-DLK[X1]V-NH2; lactam 1-3) gave an IC50 [1] of 5380 nM, an IC50 [2] of 11 nM and an IC50 [3] of 118 nM. It also gave an IC50 [4] of 34 nM, a half-life [5] greater than 4.82 h and a half-life [6] greater than 4.82 h.

Source: PMC9307089 (Journal of medicinal chemistry, 2021)
